# Experiments:
# [1] = test system: FVB mice expressing luciferase in brain tissue; test: In vivo bioluminescence imaging in brains of FVB mice injected with AAV9-luc+ in the striatum; conditions: for light emission in brains of live mice (qualitative): mouse, in vivo
# Method: (§1) FVB mice were injected with AAV9-luc+ in the brain striatum. Bioluminescence assays were performed approximately nine months after AAV injection. Each luciferin amide was diluted into PBS to the indicated concentration from a 50 mM DMSO stock solution and filtered (0.22 μm) prior to intraperitoneally injection (0.1 mL per mouse). Mice were anesthetized with isoflurane (2% in 1 L/min oxygen) and images acquired on a Xenogen IVIS 100 imaging system and analyzed with Living Image software.
# Certain luciferin amides described herein were tested to determine whether they would image well in live mice. For these studies, FVB mice were injected with adeno-associated virus 9 (AAV9)-luciferase constructs into the brain striatum.
# Bioluminescence imaging (BLI) in the brain is more challenging than imaging in the rest of the organism, in part because a luciferase substrate (i.e., a luciferin) must cross the blood-brain barrier. Therefore, the ability of a synthetic luciferin (i.e., Compound 9's corresponding luciferin (CycLuc1)) to allow bioluminescence imaging in these mice, as compared to the native firefly luciferase substrate (i.e., D-luciferin) was first tested. Specifically, each substrate was injected intraperitoneally (IP) in PBS at a volume of 0.1 mL, D-luciferin being at a concentration of 100 mM and CycLuc1 being at a concentration of 5 mM. […] CycLuc1 was then injected at a 320-fold lower dose (0.06 mL of 0.5 mM) than D-luciferin.
# Specifically, Compound 9 (i.e., CycLuc1 amide) was injected at 0.5 mM in 0.5% DMSO/PBS (0.06 mL).
# In this figure, mice in the top row were treated with luciferin amides in the amounts indicated in the figure, and the mice in the bottom row were the same mice that were imaged one day later using a standard dose of D-luciferin.
# [2] = biological target: T1, FAAH (Mus musculus, UniProt O08914); test: In vivo FAAH inhibition assay with PF-3845; design: species or system mice; conditions: for total photon flux, average: 0.1 mM (0.1 mL) IP
# T1 construct: metabolized into CycLuc1 by endogenous FAAH activity; from tissue; host or cells: brain (striatum) of live FVB mice expressing AAV9-delivered luciferase
# T1 sequence (O08914 1-579): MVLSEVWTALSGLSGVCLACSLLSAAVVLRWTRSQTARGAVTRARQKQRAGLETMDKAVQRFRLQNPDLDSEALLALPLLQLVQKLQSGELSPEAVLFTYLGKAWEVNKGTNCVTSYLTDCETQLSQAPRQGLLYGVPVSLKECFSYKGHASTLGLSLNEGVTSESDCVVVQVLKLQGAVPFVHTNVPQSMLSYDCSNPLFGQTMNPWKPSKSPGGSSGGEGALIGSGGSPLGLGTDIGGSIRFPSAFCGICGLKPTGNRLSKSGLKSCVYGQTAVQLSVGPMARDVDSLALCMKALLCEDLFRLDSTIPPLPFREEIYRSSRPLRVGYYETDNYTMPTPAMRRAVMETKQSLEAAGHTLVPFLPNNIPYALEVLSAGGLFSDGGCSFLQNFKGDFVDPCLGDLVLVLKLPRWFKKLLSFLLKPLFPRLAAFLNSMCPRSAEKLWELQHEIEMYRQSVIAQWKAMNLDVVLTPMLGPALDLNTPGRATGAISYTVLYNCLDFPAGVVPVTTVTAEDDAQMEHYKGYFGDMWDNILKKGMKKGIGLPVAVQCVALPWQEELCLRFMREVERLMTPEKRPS
# Method: as §1
# Mice were injected intraperitoneally with 1 mg/mL of a specific FAAH inhibitor PF-3845 dissolved in 18:1:1 PBS:ethanol:emulphor (0.1 mL), or with an equal volume of 18:1:1 PBS:ethanol:emulphor control vehicle. Thirty minutes after injection, the mice were imaged as described above.
# FAAH is highly expressed in most tissues, particularly in the brain. To determine whether the luciferin amides are cleaved exclusively by FAAH in the brain tissue, eight FVB mice expressing AAV9-luciferase in the striatum were divided into two groups: (1) four mice were injected IP with 1 mg/mL of a specific FAAH inhibitor PF-3845 dissolved in 18:1:1 PBS:ethanol:emulphor (0.1 mL), and (2) four mice were treated with an equal volume of 18:1:1 PBS:ethanol:emulphor control vehicle without PF-3845. After 30 minutes, one mouse from each group was IP injected with 5 mM CycLuc1 (i.e., Compound 9's corresponding luciferin) in PBS (0.1 mL), and three were injected with 0.1 mM Compound 5 in 0.2% DMSO/PBS (0.1 mL). The mice were imaged 10 minutes after substrate injection. Mice in the right panel were group (1) (i.e., treated with a FAAH inhibitor) and mice in the left panel were from group (2) (i.e., without being treated with a FAAH inhibitor).
# [3] = test system: live CHO cells expressing R218K luciferase; test: Intact cell FAAH assay, light emission from live CHO cells expressing R218K luciferase; type: cell-based, Chinese hamster; conditions: 50 μM FAAH inhibitor
# Method: Chinese hamster ovary-K1 (CHO-K1) cells were grown in a CO2 incubator at 37° C. with 5% CO2 and were cultured in F-12K Nutrient Mixture (GIBCO) supplemented with 10% fetal bovine serum and 100 U/mL penicillin/streptomycin.
# Wild-type and R218K mutant luciferases were cloned into the BamHI-NotI site of pCDNA 3.1 and transiently transfected into CHO-K1 cells with Lipofectamine 2000 in 96-well tissue culture-treated plates for intact cell assays, or 6-well plates for lysed cell assays. For intact cells, 0.075 μg plasmid/well was transfected; for lysed cells, 2.25 μg plasmid/well was transfected.
# […] The cells were incubated for one hour in the CO2 incubator at 37° C. Cells were then washed with Hank's balanced salt solution (HBSS) and overlaid with 60 μL a luciferin amide substrate in HBSS. Imaging assays were performed 3 minutes after substrate addition, with final substrate concentrations ranging from 0.122 to 250 μM.
# Seven luciferin amides, i.e., Compounds 1-4, 9, 10, and 25, were tested in live CHO cells expressing R218K luciferase at various concentrations (i.e., 0.12 μM, 0.25 μM, 0.5 μM, 1 μM, 2 μM, 4 μM, 8 μM, 16 μM, 31 μM, 62 μM, 125 μM, and 250 μM).
# Compound 25 and Compound 10, as well as their corresponding luciferins (i.e., D-Luciferin and CycLuc2, respectively), were tested in live CHO cells expressing wild-type (WT) luciferase or R218K (RK) luciferase at various concentrations (i.e., 0.125 μM, 0.25 μM, 0.5 μM, 1 μM, 2 μM, 4 μM, 8 μM, 16 μM, 31 μM, 62 μM, 125 μM, and 250 μM).
# [4] = biological target: T2, FAAH (Homo sapiens, UniProt O00519); test: In vitro FAAH assay: luciferin amide treated with recombinant FAAH, then R218K luciferase, bioluminescence; type: biochemical
# T2 construct: purchased Cayman Chemical
# T2 sequence (O00519 1-579): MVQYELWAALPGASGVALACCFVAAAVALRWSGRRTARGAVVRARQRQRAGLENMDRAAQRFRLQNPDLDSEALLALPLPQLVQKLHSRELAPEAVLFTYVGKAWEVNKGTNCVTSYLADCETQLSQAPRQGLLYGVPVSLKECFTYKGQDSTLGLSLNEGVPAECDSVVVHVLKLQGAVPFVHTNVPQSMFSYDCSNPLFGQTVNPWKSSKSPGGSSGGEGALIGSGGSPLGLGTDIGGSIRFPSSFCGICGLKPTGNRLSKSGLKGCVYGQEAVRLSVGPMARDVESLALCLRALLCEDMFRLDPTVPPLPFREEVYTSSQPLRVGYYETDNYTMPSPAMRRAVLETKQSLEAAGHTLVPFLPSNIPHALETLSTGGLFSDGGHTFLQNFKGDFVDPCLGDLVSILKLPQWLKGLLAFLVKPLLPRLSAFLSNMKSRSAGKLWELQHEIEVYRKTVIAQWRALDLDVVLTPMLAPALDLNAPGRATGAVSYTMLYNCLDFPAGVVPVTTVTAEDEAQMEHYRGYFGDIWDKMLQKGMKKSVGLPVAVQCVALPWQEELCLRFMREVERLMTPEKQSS
# Method: Recombinant FAAH, FAAH assay buffer, and FAAH inhibitors URB-597, PF-750, and PF-3845 were purchased from Cayman Chemical.
# Bioluminescence assays were performed in either a Turner Veritas luminometer or a Xenogen IVIS-100 imaging system. For Veritas experiments, white 96-well plates were used (Costar 3912). For IVIS experiments, black 96-well plates were used (Costar 3915).
# Luciferin amides (50 μM) were treated with FAAH and FAAH buffer (Cayman Chemical) in the presence or absence of 50 μM FAAH inhibitor URB-597 or 50 μM luciferase inhibitor 2-(4′-methoxyphenyl)benzothiazole. After 10 minutes at room temperature, R218K mutant firefly luciferase was added at a concentration of 3 μg/mL and bioluminescence was detected on a Turner Veritas luminometer.
# Four luciferin amides (50 μM), i.e., Compounds 1, 9, 10, and 25, were treated with a buffer alone, a buffer containing FAAH, a buffer containing FAAH+50 μM URB-597 (i.e., a FAAH inhibitor), or a buffer containing FAAH+50 μM luciferase inhibitor 2-(4′-methoxyphenyl)benzothiazole. After 10 minutes at room temperature, R218K luciferase was added at a concentration of 3 μg/mL and bioluminescence was detected on a Turner Veritas.
# Three luciferin amides (50 μM), i.e., Compounds 2, 9, and 25, were treated with a buffer alone, a buffer containing FAAH, a buffer containing FAAH 1:10 (i.e., a ten-fold dilution of FAAH), a buffer containing pig liver esterase (PLE), or a buffer containing PLE 1:10 (i.e., a ten-fold dilution of PLE). After one hour at room temperature, R218K luciferase was added at a concentration of 3 μg/mL and bioluminescence was detected on a Turner Veritas.
compound,measurement,setting,value
Me2N-luciferin methyl ester [reference compound],light emission in brains of live mice (qualitative),[1],relatively weak light emission
"NC(=O)[C@H]1CSC(c2nc3cc4c(cc3s2)NCCC4)=N1 [Compound 14, (S)-2-(5,6,7,8-tetrahydrothiazolo[4,5-g]quinolin-2-yl)-4,5-dihydrothiazole-4-carboxamide]",Photon flux after treatment with luciferin analogs,[1]; 100 μM,1.43E+07 p/s
same,improved signal over 100 mM D-luciferin,[1]; 0.1 mM,more than 10 fold
"CC(C)Nc1ccc2nc(C3=N[C@@H](C(N)=O)CS3)sc2c1 [Compound 5, (S)-4,5-dihydro-2-(6-(isopropylamino)-benzo[d]thiazol-2-yl)thiazole-4-carboxamide]","total photon flux, average",[2]; group (1) treated with PF-3845,4.4×10^4 p/s
same,"total photon flux, average",[2]; group (2) vehicle without PF-3845,1.3×10^7 p/s
same,change of light output by FAAH inhibitor PF-3845 (group 1 vs group 2),[2]; PF-3845 1 mg/mL (0.1 mL) IP 30 minutes before substrate,reduced by nearly three orders of magnitude
same,Photon flux after treatment with luciferin analogs,[1]; 4 μM,2.97E+05 p/s
same,signal as share of the D-luciferin signal,"[1]; 4 μM, 25,000-fold lower dose",~30%
same,Photon flux after treatment with luciferin analogs,[1]; 20 μM,1.95E+06 p/s
same,Photon flux after treatment with luciferin analogs,[1]; 100 μM,7.84E+06 p/s
same,Photon flux after treatment with luciferin analogs,[1]; 500 μM,1.19E+07 p/s
same,photon flux relative to standard 100 mM D-luciferin,"[1]; IP, 20 μM, 5000-fold lower dose",higher photon flux than the standard 100 mM D-luciferin
same,bioluminescence signal higher than standard D-luciferin imaging conditions,[1]; doses 200-fold and 1000-fold lower than standard D-luciferin dose,5 fold
"O=C(O)[C@H]1CSC(c2nc3ccc(O)cc3s2)=N1 [D-luciferin, reference compound]",Photon flux after treatment with luciferin analogs,[1]; 100 mM,1.21E+06 p/s
"CCNc1ccc2nc(C3=N[C@@H](C(=O)NC)CS3)sc2c1 [Compound 7, (S)-2-(6-(ethylamino)benzo[d]thiazol-2-yl)-4,5-dihydro-N-methylthiazole-4-carboxamide]",light emission in brains of live mice (qualitative),[1],relatively strong light emission
"CN1CCc2cc3nc(C4=N[C@@H](C(=O)O)CS4)sc3cc21 [CycLuc2, reference compound]","effect of FAAH inhibitors URB-597, PF-750 and PF-3845 on light output",[3],no significant effect
"CNc1ccc2nc(C3=N[C@@H](C(N)=O)CS3)sc2c1 [Compound 1, (S)-4,5-dihydro-2-(6-(methylamino)benzo[d]-thiazol-2-yl)thiazole-4-carboxamide]",light emission in brains of live mice (qualitative),[1],relatively strong light emission
same,increase in bioluminescence signal on addition of FAAH versus buffer,"[4]; 50 μM luciferin amide, 10 minutes at room temperature, R218K luciferase 3 μg/mL",167 fold
"NC(=O)c1cccc(-c2cccc(OC(=O)NC3CCCCC3)c2)c1 [URB-597, reference compound]","inhibition of the FAAH-dependent bioluminescence signals of Compounds 1, 9, 10, 25 by FAAH inhibitor","[4]; 50 μM URB-597, 50 μM luciferin amide",more than 100 fold
"CC(C)CNc1ccc2nc(C3=N[C@@H](C(N)=O)CS3)sc2c1 [Compound 3, (S)-4,5-dihydro-2-(6-(isobutylamino)benzo[d]-thiazol-2-yl)thiazole-4-carboxamide]",light emission in brains of live mice (qualitative),[1],relatively strong light emission
"NC(=O)[C@H]1CSC(c2nc3ccc(NCCCO)cc3s2)=N1 [Compound 4, (S)-2-(6-(3-hydroxypropylamino)benzo[d]-thiazol-2-yl)-4,5-dihydrothiazole-4-carboxamide]",light emission in brains of live mice (qualitative),[1],relatively weak light emission
"CCNc1ccc2nc(C3=N[C@@H](C(N)=O)CS3)sc2c1 [Compound 6, (S)-2-(6-(ethylamino)benzo[d]thiazol-2-yl)-4,5-dihydrothiazole-4-carboxamide]",light emission in brains of live mice (qualitative),[1],relatively strong light emission

# Reference: patent publication US9814787B2, “Luciferin amides” (University of Massachusetts, priority 2013, dated 2017)
